Assay results as given in PMC9537541, “Synthesis and anticancer activity of new benzensulfonamides incorporating s-triazines as cyclic linkers for inhibition of carbonic anhydrase IX” (Scientific Reports, 2022).
Entries after “also recorded” stand apart in the source; their conditions may differ.

Legend:
[1] = test system: Breast cancer (MDA-MB-468); assay: NCI single dose SRB screen, MDA-MB-468; format: cell-based; conditions: for inhibition at 10 µM: Homo sapiens, MDA-MB-468, 48 h, 10^−5 M single dose, 48 h, SRB, read-out: GI% Breast cancer (MDA-MB-468); for GI% Normoxia MDA-MB-468: normoxic condition (5% CO2, 95% air at 37 °C), NCI protocol
Outline: (§1)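 The NCI 60-cell-line panel was screened at a single 10 µM dose with 48 h drug exposure. Cell growth and viability were measured by sulforhodamine B colorimetric assay, per the NCI Drug Evaluation Branch protocol.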

[2] = test system: non-small cell lung cancer (HOP-92); assay: NCI single dose SRB screen, HOP-92; format: cell-based; conditions: 10 µM single dose
Description: (§2) Target compounds in series (A) and (B), were submitted to the National Cancer Institute (NCI) Developmental Therapeutic Program (www.dtp.nci.nih.gov), where they have been assessed, in vitro for their anticancer activity. Two series (A) and (B), were screened in a single dose (10 µM) versus full panel composed of 60 cancer cell lines, in accordance with protocol of drug evaluation branch, NCI, Bethesda. Sulforhodamine B (SRB) colorimetric assay was used to determine cell growth and viability,[40].
(§3) Protocol of Drug Evaluation Branch, NCI, Bethesda, was adopted in the antitumor assay. Assessment of cell growth and viability was carried out utilizing SRB assay and 48 h drug exposure protocol as previously reported,[40].

CNS cancer (SNB-75) = assay: NCI single dose SRB screen, SNB-75; format: cell-based; conditions: Homo sapiens, SNB-75, 48 h, 10^−5 M single dose, read-out: GI% CNS cancer (SNB-75)
Outline: as §1

Leukemia (CCRF-CEM) = assay: NCI single dose SRB screen, CCRF-CEM; format: cell-based; conditions: normoxic condition (5% CO2, 95% air at 37 °C), NCI protocol
Description: as §2, §3

leukemia (CCRF-CM) = assay: anti-proliferative activity under hypoxic condition (MTT), CCRF-CM; format: cell-based; conditions: for GI% Hypoxia CCRF-CM: hypoxic condition (1% O2, 5% CO2, and 94%N2 at 37 °C); for IC50: hypoxic conditions (1%O2, 5% CO2 and 94% N2), mean ± S.D. of three experiments
Description: (§4) All cells were incubated in hypoxic atmosphere (1% O2, 5% CO2, and 94%N2) and maintained at 37 °C. All procedures to determine compounds cytotoxicity were accomplished using MTT assay as reported,[59],[60].

hCA XII = molecular target: T1, hCA XII (Homo sapiens, UniProt O43570); assay: stopped-flow CO2 hydrase assay, hCA XII; format: biochemical; conditions: for Ki: stopped flow technique, mean from 3 different assays
T1 construct: made in house
T1 sequence (O43570 25-354): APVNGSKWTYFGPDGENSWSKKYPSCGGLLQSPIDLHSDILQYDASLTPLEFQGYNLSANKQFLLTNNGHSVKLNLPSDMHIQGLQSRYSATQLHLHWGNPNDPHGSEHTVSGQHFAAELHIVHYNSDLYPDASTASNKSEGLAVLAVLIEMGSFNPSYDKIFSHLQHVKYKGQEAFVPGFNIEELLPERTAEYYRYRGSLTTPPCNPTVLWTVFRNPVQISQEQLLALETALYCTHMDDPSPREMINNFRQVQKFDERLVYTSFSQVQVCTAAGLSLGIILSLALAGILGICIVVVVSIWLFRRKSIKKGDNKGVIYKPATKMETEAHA

[3] = test system: Breast cancer (MDA-MB-468); assay: anti-proliferative activity under hypoxic condition (MTT), MDA-MB-468; format: cell-based; conditions: for IC50: Homo sapiens, MDA-MB-468, hypoxic conditions (1%O2, 5% CO2 and 94% N2), mean ± S.D. of three experiments; for GI% Hypoxia MDA-MB-468: hypoxic condition (1% O2, 5% CO2, and 94%N2 at 37 °C)
Description: as §4

Leukemia (SR) = assay: NCI single dose SRB screen, SR; format: cell-based; conditions: 48 h, 10^−5 M single dose, read-out: GI% Leukemia (SR)
Outline: as §1

Renal cancer (UO-31) = assay: NCI single dose SRB screen, UO-31; format: cell-based; conditions: Homo sapiens, UO-31, 48 h, 10^−5 M single dose, read-out: GI% Renal cancer (UO-31)
Outline: as §1

hCA II = molecular target: T2, hCA II (Homo sapiens, UniProt P00918); assay: stopped-flow CO2 hydrase assay, hCA II; format: biochemical; conditions: stopped flow technique, mean from 3 different assays
T2 construct: made in house

hCA I = molecular target: T3, hCA I (Homo sapiens, UniProt P00915); assay: stopped-flow CO2 hydrase assay, hCA I; format: biochemical; conditions: stopped flow technique, mean from 3 different assays
T3 construct: made in house
T3 sequence (P00915 whole entry): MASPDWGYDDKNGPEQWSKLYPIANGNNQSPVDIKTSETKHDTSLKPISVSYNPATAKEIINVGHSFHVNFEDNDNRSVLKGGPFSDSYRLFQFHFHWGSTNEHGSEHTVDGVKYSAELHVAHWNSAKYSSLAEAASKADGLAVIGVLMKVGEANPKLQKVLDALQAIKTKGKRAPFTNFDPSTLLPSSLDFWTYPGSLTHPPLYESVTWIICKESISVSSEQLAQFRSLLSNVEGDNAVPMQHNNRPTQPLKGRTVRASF

breast cancer (T-47D) = assay: NCI single dose SRB screen, T-47D; format: cell-based; conditions: 10 µM single dose
Description: as §2, §3

[4] = test system: normal human embryonic kidney cells (HEK-293); assay: normal cell line cytotoxicity (MTT), HEK-293; format: cell-based
Description: All data was collected in triplicate, and IC50 values were calculated as the average of three separate trials.

hCA IX = molecular target: T4, hCA IX (Homo sapiens, UniProt Q16790); assay: stopped-flow CO2 hydrase assay, hCA IX; format: biochemical
T4 construct: made in house

[5] = test system: MDA-MB-468 breast cancer cells; assay: cell cycle analysis by flow cytometry; format: cell-based; conditions: 24 h at IC50 concentration (3.99 µM)
Source text: Cell cycle is composed of four distinct phases: G1, S, G2, and M[45]. Flow cytometry analysis of DNA ploidy in MDA-MB-468 breast cancer cells was used to evaluate the influence of compound 12d on normal cell cycle progression. […] Apoptosis and DNA fragmentation are possible mechanisms for 12d-induced cancer cell death based on the observed high increase in a pre-G1 cell population by 20 fold compared to the control.
The treated cells were centrifuged and maintained in ice-cold ethanol (70%) before being washed again with PBS and then re-suspended in RNase ([…]) followed by staining with 40 µg/mL PI, and analyzed by flow cytometry technique using a FACS Calibur (Becton Dickinson,BD, USA). Cell cycle distribution were calculated via CellQuest software 5.1 (Becton Dickinson),[63].

caspase 9 = assay: Western blot of caspase 9 in MDA-MB-468 cells; format: cell-based
Source text: (§5) Caspases, cysteine-containing aspartic acid-specific proteases, afford essential factors in cell networks that control and regulate death of the cell. Caspase-3 is a vital executioner protease which is triggered by cascade of initiator caspases such as caspase-9 [49]. This study was further extended to explore the apoptosis mechanism of compound 12d upon breast cancer, MDA-MB-468, cells by measuring the expression of apoptosis biomarkers (cleaved caspase 3 and caspase 9) via Gel electrophoresis and immune-blot analysis of proteins (Western Blot) using β-actin to normalize the loading. […] Accordingly, compound 12d have the ability to induce apoptosis in MDA-MB-468 cancer cells probably by pathways involving both caspase3 and caspase9.
(§6) MDA-MB-468 cells, were harvested on dishes of cell culture and treated for 24 h with compound 12d. An equal amount of protein transferred to PVDF membranes after separated by SDS-PAGE (5–15%). Skim milk with concentration 5% was used to block the blotted membranes for 1 h before being incubated with the desired primary antibodies at 37 °C for 1 h. Colorimetric technique was used to visualize immune reactive bands using Geldoc-it, UVP, England. To quantify equal loading, membrane was reseeded with β-actin antibody.
(§7) Eelectrophoresed proteins on SDS-PAGE were transferred to a Hybond™ nylon membrane (GE Healthcare) via TE62 Standard transfer tank with Cooling Chamber (Hoefer Inc. and incubate for 1 hour at room temperature in Blocking Solution. Additionally, β-actin (abcam, ab8227) was applied as housekeeping protein.
(§8) - Membrane was incubated the overnight at 4°C in antibody solution containing caspase isoform (Cell Signalling) separately for each antibody.
(§9) - Colorimetric technique was used to visualize immune reactive bands using Geldoc-it, UVP, England. Each experiment was run in triplicate.

caspase 3 = assay: Western blot of caspase 3 in MDA-MB-468 cells; format: cell-based
Source text: as §5, §6, §7, §8, §9

leukemia (RPMI-8226) = assay: NCI single dose SRB screen, RPMI-8226; format: cell-based; conditions: 10 µM single dose
Description: as §2, §3

[6] = test system: MDA-MB-468 breast cancer cells; assay: Annexin V-FITC/propidium iodide apoptosis assay; format: cell-based
Description: Apoptosis of tumor cells is the principal therapeutic objective of antiproliferative agents. The apoptotic induction potential of 12d in MDA-MB-468 cells were assessed using the Annexin V/propidium iodide double staining assay,[48].
Cells apoptosis further analyzed by measuring phosphatidylserine externalization using V-FITC/PI apoptosis detection kit (BD Biosciences, USA) according manufacturer's instructions, as reported,[62].

[7] = Western blot, β-actin normalised

SMILES: N#C/C(=C\c1cccc(F)c1)c1nc(N)nc(Nc2ccc(S(N)(=O)=O)cc2)n1 [Compound 12i, 4-({4-Amino-6-[(1E)-1-cyano-2-(3-fluorophenyl)eth-1-en-1-yl]-1,3,5-triazin-2-yl}amino)benzene-1-sulfonamide]
- inhibition at 10 µM [1]: 17%
- GI% Normoxia MDA-MB-468 [1]: 16.58%
- GI% non-small cell lung cancer (HOP-92) [2]: 16%
- inhibition at 10 µM (CNS cancer (SNB-75)): ≤ 10%
- GI% Normoxia CCRF-CM (Leukemia (CCRF-CEM)): 0.76%
- GI% Hypoxia CCRF-CM (leukemia (CCRF-CM)): 50.14%
- IC50 (leukemia (CCRF-CM)): 9830 ± 520 nM
- Ki (hCA XII): 182 nM
- IC50 [3]: 1480 ± 80 nM
- GI% Hypoxia MDA-MB-468 [3]: 64.75%
- inhibition at 10 µM (Leukemia (SR)): ≤ 10%
- inhibition at 10 µM (Renal cancer (UO-31)): 20%
- Ki (hCA II): 253 nM
- Ki (hCA I): 480 nM

SMILES: CN(C)c1ccc(/C=C(\C#N)c2nc(N)nc(Nc3ccc(S(N)(=O)=O)cc3)n2)cc1 [Compound 12d, 4-({4-Amino-6-[(1E)-1-cyano-2-[4-(dimethylamino)phenyl]eth-1-en-1-yl]-1,3,5-triazin-2-yl}amino)benzene-1-sulfonamide]
- inhibition at 10 µM [1]: ≥ 50%
- GI% Normoxia MDA-MB-468 [1]: 61.39%
- GI% breast cancer (T-47D) (breast cancer (T-47D)): ≥ 50%
- IC50 ([4]; Homo sapiens, HEK293, normal cells, mean ± SD of three independent experiments): 68100 ± 3720 nM
- safety index relative to staurosporine ([4]; cancer versus normal cells): about twofold
- GI% Normoxia CCRF-CM (Leukemia (CCRF-CEM)): 52.61%
- GI% Hypoxia CCRF-CM (leukemia (CCRF-CM)): 55.82%
- IC50 (leukemia (CCRF-CM)): 4510 ± 240 nM
- Selectivity index (SI) I/XII (hCA XII; hCA XII over off-target hCA I): 3
- Selectivity index (SI) II/XII (hCA XII; hCA XII over off-target hCA II): 2
- Ki (hCA XII): 188 nM
- Selectivity index (SI) I/IX (hCA IX; hCA IX over off-target hCA I): 3
- Selectivity index (SI) II/IX (hCA IX; hCA IX over off-target hCA II): 2
- Ki (hCA IX; stopped flow technique, mean from 3 different assays): 190 nM
- cell cycle arrest phases [5]: G0-G1 and S phases
- increase in pre-G1 cell population compared to the control [5]: 20 fold
- cleaved caspase 9 expression relative to the control (caspase 9; [7]): increasing the level; also recorded: significant activation
- Expression level of procaspase 9, Lane %, Mean ± SD (caspase 9; treated 24 h, three replicates, control 40.53 ± 0.008): 25.30 ± 0.004%
- Expression level of cleaved caspase 9, Lane %, Mean ± SD, first line (caspase 9; treated, first of two band lines (35/37 KDa), control 6.75 ± 0.008): 6.04 ± 0.012%
- Expression level of cleaved caspase 9, Lane %, Mean ± SD, second line (caspase 9; treated, second of two band lines (35/37 KDa), control 14.32 ± 0.004): 21.59 ± 0.004%
- IC50 [3]: 3990 ± 210 nM
- GI% Hypoxia MDA-MB-468 [3]: 59.38%
- inhibition at 10 µM (Leukemia (SR)): ≥ 50%
- Ki (hCA II): 364 nM
- Ki (hCA I): 577 nM
- cleaved caspase 3 expression relative to the control (caspase 3; [7]): increasing the level; also recorded: significant activation
- Expression level of procaspase 3, Lane %, Mean ± SD (caspase 3; treated 24 h, three replicates, control 42.52 ± 0.013): 27.81 ± 0.008%
- Expression level of cleaved caspase 3, Lane %, Mean ± SD, first line (caspase 3; treated, first of two band lines (17/19 KDa), control 4.91 ± 0.017): 6.88 ± 0.008%
- Expression level of cleaved caspase 3, Lane %, Mean ± SD, second line (caspase 3; treated, second of two band lines (17/19 KDa), control 13.59 ± 0.0): 22.42 ± 0.0%
- GI% leukemia (RPMI-8226) (leukemia (RPMI-8226)): ≥ 50%
- total increase in apoptotic cells compared to the control ([6]; annexin V-FITC positive cells): about 20 fold
- apoptotic cells in late apoptosis phase (UR) ([6]; annexin V-FITC/PI, control 0.11%): 17.66%
- apoptotic cells in early stage (LR) ([6]; annexin V-FITC/PI, control 0.39%): 2.76%
